Measured values as given in the OligoGym collection.
Values joined by “and” are separate entries in the source; they are usually repeats but may differ in a detail not shown here. Identical values can stand only once. After the bases stand the sugars from the 5' end (letter, count) and the backbone: PS all phosphorothioate, else s phosphorothioate and o phosphodiester by linkage. Methylation of C is not given here. e = 2'-O-(2-methoxyethyl) (MOE); k = constrained ethyl (cEt); d = 2'-deoxy (DNA)

Target: IRF4
Conditions: ASO

| Sequence | target mRNA inhibition (MM.1R, 1 µM) | target mRNA inhibition (SK-MEL-28, 4 µM) | also measured |
| --- | --- | --- | --- |
| TAATCTGTATAGTTCT (sugars k3 d10 k3, PS) | 42% | – | – |
| GTCTACTTGAGTCTGT (sugars k3 d10 k3, PS) | – | 51% | – |
| CCGCACTCACTCGCAG (sugars k3 d10 k3, PS) | – | 8% | – |
| TTCCTGTAACAGGCTA (sugars k3 d10 k3, PS) | – | 63% and 77% | – |
| CCTATCACTGCCAAGT (sugars k3 d10 k3, PS) | -3% | – | – |
| GGAATGGCGGATAGAT (sugars k3 d10 k3, PS) | – | 33% | – |
| GAAGTTTACACTGGAT (sugars k3 d9 k3 e1, PS) | 45% | – | – |
| ATGTTAGCCAATTCCT (sugars kdddddddddkekeke, PS) | 0% and 5% | – | – |
| GGGAACAGGACCTGGT (sugars k3 d10 k3, PS) | – | 55% | – |
| TACTAGATTGTAGGAC (sugars k3 d10 k3, PS) | – | 27% | – |
| TTATAACCGGTAGAGT (sugars k3 d10 k3, PS) | – | 38% | – |
| CTGCATTTGCAAATAA (sugars k3 d10 k3, PS) | – | -21% | – |
| AAGTTCATGTAAAGTC (sugars kkdddddddddekeke, PS) | 34% and 29% | – | – |
| CGCCACCTGATGCCTC (sugars k3 d10 k3, PS) | – | 30% | – |
| GGTAAAGGAGTGCAGG (sugars k3 d10 k3, PS) | – | 46% | – |
| CTTGATAAAGGCTGAA (sugars k3 d10 k3, PS) | – | 60% | – |
| AGCCCTTGCTGCAAAT (sugars k3 d10 k3, PS) | -11% | – | – |
| TGTGCTTGCCAAGCCT (sugars kddddddddddkekek, PS) | -1% and 3% | – | – |
| CCAGGAAACCGCTGGC (sugars k3 d10 k3, PS) | – | 38% | – |
| CAAAAATGTCCCATCC (sugars k3 d10 k3, PS) | – | 19% | – |
| ACTTATTTGTGGCTCA (sugars k3 d10 k3, PS) | 36% | – | – |
| CTCGAGGCCAACGACT (sugars k3 d10 k3, PS) | – | 1% | – |
| AAGAAGCAAGTCGGTC (sugars k3 d10 k3, PS) | – | 55% | – |
| AGCTTGATAAAGGCTG (sugars e1 k2 d9 k2 e2, PS) | 1% | – | – |
| GTAAACTGCCTTAGGG (sugars k3 d10 k3, PS) | – | 44% | – |
| ACAGATGGCATGCGAA (sugars k3 d10 k3, PS) | 19% | – | – |
| TAGATTCTCCCTGCAC (sugars k3 d10 k3, PS) | 18% | – | – |

| Sequence | target mRNA inhibition (MM.1R, 1 µM) | target mRNA inhibition (SK-MEL-28, 4 µM) | also measured |
| --- | --- | --- | --- |
| TAGGTAAGATCTCCAT (sugars k3 d10 k3, PS) | 35% and 33% | – | – |
| ACGGAAGTTTACACTG (sugars kkkdddddddddkeke, PS) | 13% | – | – |
| AATGAGGAAGCCGTTC (sugars k3 d10 k3, PS) | – | 47% | – |
| AAGCATCCTTTCCTAC (sugars k3 d10 k3, PS) | – | 35% | – |
| TAGGATAATATACCCC (sugars k3 d10 k3, PS) | – | 74% | – |
| TGCTTGAGGTTTTCCT (sugars kkdddddddddkekek, PS) | 36% | – | – |
| GATACAAAACGGACTG (sugars k3 d10 k3, PS) | – | 44% | – |
| TTCCATAGATCAACAT (sugars k3 d10 k3, PS) | – | 44% | – |
| CACAACTGCAGTTTGA (sugars k3 d10 k3, PS) | – | 14% | – |
| CCCAAAATACTTTGCA (sugars k3 d10 k3, PS) | – | 64% | – |
| AGACATACCTACAAGC (sugars k3 d10 k3, PS) | – | 50% | – |
| ACGGAAGTTTACACTG (sugars kkddddddddddkeke, PS) | 13% | – | – |
| AGTGACTTGCATCCAT (sugars kdddddddddkekeke, PS) | 8% | – | – |
| CAAGTGTCTAAAGTCC (sugars kdddddddddkekeke, PS) | 11% and 10% | – | – |
| TACTGCTTGAGGTTTT (sugars kkdddddddddkekek, PS) | 22% | – | – |
| ACGCACCCGCAGCCCA (sugars k3 d10 k3, PS) | -10% | – | – |
| TGAGATATTCCTCTCA (sugars k3 d10 k3, PS) | 18% | – | – |
| GAGGGTCTGGAAACTC (sugars k4 d8 k4, PS) | – | 8% | – |
| GACATTACTAGATTGT (sugars k3 d10 k3, PS) | – | 70% | – |
| GTCCTTCAGATTTACA (sugars k3 d10 k3, PS) | -17% | – | – |
| CCAAATGTGGAGCTCC (sugars k3 d10 k3, PS) | – | 23% | – |
| GTGCAAGATGACTCCA (sugars k3 d10 k3, PS) | – | 56% | – |
| AACTATAATTGGCACG (sugars k3 d10 k3, PS) | – | 73% and 59% | – |
| ATAAAGGACCCCGCCA (sugars k3 d10 k3, PS) | – | 18% | – |
| TTAAAGAGCGCATTTC (sugars k3 d10 k3, PS) | – | 41% | – |
| AACCATTACTTAGACA (sugars k3 d10 k3, PS) | – | 45% | – |
| CGAATAGGACCCCTAT (sugars k3 d10 k3, PS) | – | 9% | – |

| Sequence | target mRNA inhibition (MM.1R, 1 µM) | target mRNA inhibition (SK-MEL-28, 4 µM) | also measured |
| --- | --- | --- | --- |
| GTCTGAGATGTCCAGC (sugars k3 d10 k3, PS) | 7% | – | – |
| GATAACGAGGTGCCTT (sugars k3 d10 k3, PS) | – | 18% | – |
| GTATTAATATTCTGAC (sugars k3 d10 k3, PS) | – | 63% | – |
| GCCGAACTCTCCGCCT (sugars k3 d10 k3, PS) | – | 51% | – |
| ATACATCACTGCAGTT (sugars k3 d10 k3, PS) | – | 36% | – |
| CCTCATTCACAACTAG (sugars k3 d10 k3, PS) | 5% | – | – |
| ATGTGATAGCTGAGCT (sugars kkddddddddddkeke, PS) | 4% | – | – |
| CTTTGAAGTGCTGTGT (sugars k3 d10 k3, PS) | – | 16% | – |
| CAAGACCCCGTATCCC (sugars k3 d10 k3, PS) | – | 44% | – |
| ATACATTCACACTGCC (sugars k3 d10 k3, PS) | – | 45% | – |
| AGCTTAGTCACCACGG (sugars k3 d10 k3, PS) | – | 67% | – |
| CCGTCCGCGCCCGCGC (sugars k3 d10 k3, PS) | – | 61% | – |
| ACCCAGTGGTAGGTAG (sugars k3 d10 k3, PS) | – | 30% | – |
| TGTAAGGTCTGAGAGC (sugars k3 d10 k3, PS) | – | 25% | – |
| TCCGGGTGTGGCTGAT (sugars k3 d10 k3, PS) | 26% | – | – |
| CCTCAAAGTCATTGCT (sugars k3 d10 k3, PS) | – | 21% | – |
| AAGAAGCACTGGCATT (sugars k3 d10 k3, PS) | – | 22% | – |
| TTAGGAACGAAGAGCA (sugars k3 d10 k3, PS) | – | 32% | – |
| CTTGATAAAGGCTGAA (sugars e1 k2 d9 k2 e2, PS) | 17% | – | – |
| AAGAAACGAGTTGACA (sugars k3 d10 k3, PS) | – | 22% | – |
| CTGGATATGTGGTGTT (sugars k3 d10 k3, PS) | 30% | – | – |
| TGGCTAGCAGAGGTTC (sugars k4 d8 k4, PS) | – | 9% | – |
| TACGAGAGGGTCTGAT (sugars k3 d10 k3, PS) | – | 0% | – |
| CGGAAGAAGGCACCTT (sugars k3 d10 k3, PS) | – | -12% | – |
| TCCCAGAGTTGTTCCA (sugars k3 d10 k3, PS) | – | 26% | – |
| ATTCCAACAGGCGGAC (sugars k3 d10 k3, PS) | 2% | – | – |
| TACACTTTGTACGGGT (sugars k3 d10 k3, PS) | – | 28% | – |

| Sequence | target mRNA inhibition (MM.1R, 1 µM) | target mRNA inhibition (SK-MEL-28, 4 µM) | also measured |
| --- | --- | --- | --- |
| GGTCAATTTTCACAGT (sugars k3 d10 k3, PS) | – | 64% | – |
| ATTTCACTGTAGGATT (sugars k3 d10 k3, PS) | – | 38% | – |
| GCATCGAGATCAGTCT (sugars k3 d10 k3, PS) | – | 57% | – |
| AGTTTACTAACTGGCT (sugars k3 d10 k3, PS) | – | 63% | – |
| AGTGCAGGAGAGGCTG (sugars k3 d10 k3, PS) | – | 36% | – |
| AAGCTTGATAAAGGCT (sugars kkkddddddddkekek, PS) | -4% | – | – |
| CCCTCATCACCGAACA (sugars k3 d10 k3, PS) | -25% | – | – |
| GACCACGCCCCTCTCC (sugars k3 d10 k3, PS) | – | 55% | – |
| CTTGCCGCTGTCGATC (sugars k4 d8 k4, PS) | – | 42% | – |
| ACTGTTACCGATGCTT (sugars kddddddddddkekek, PS) | 20% | – | – |
| AGTGTCTAAAGTCCCA (sugars kkdddddddddkekek, PS) | 26% and 9% | – | – |
| GGTTGGCTGGTCTTTG (sugars kkdddddddddekeke, PS) | 73% and 66% | – | target mRNA inhibition (MM.1R, 0.0625 µM): 34%; target mRNA inhibition (MM.1R, 0.25 µM): 47%; target mRNA inhibition (MM.1R, 4 µM): 84% |
| GTAAATGAGTCGGTCA (sugars k3 d10 k3, PS) | – | 79% | – |
| GGAGAGCGGAGGCGGG (sugars k3 d10 k3, PS) | – | 21% | – |
| CCAGCTTCGGTCGAGG (sugars k3 d10 k3, PS) | -5% | – | – |
| ATCAGATGATGTCTAG (sugars k3 d10 k3, PS) | – | -3% | – |
| CTTTTTTGGCTCCCTC (sugars k4 d8 k4, PS) | – | 46% | target mRNA inhibition (MM.1R, 0.074 µM): -3%; target mRNA inhibition (MM.1R, 0.222 µM): -3%; target mRNA inhibition (MM.1R, 0.666 µM): 9%; target mRNA inhibition (MM.1R, 2 µM): 25%; target mRNA inhibition (SK-MEL-28, 0.185 µM): 4% and 9% and 8%; target mRNA inhibition (SK-MEL-28, 5 µM): 45% and 42% and 62%; target mRNA inhibition (SK-MEL-28, 15 µM): 63% and 68% and 81% |
| CAATTAGCTCTTCTAT (sugars k3 d10 k3, PS) | – | 14% | – |
| GTAGGTAGGCACCTGT (sugars k3 d10 k3, PS) | – | 75% | – |
| TACTGTTACCGATGCT (sugars kkdddddddddkdkdk, PS) | 7% and 18% | – | – |
| GGCCTTGCCAGTGGTG (sugars k4 d8 k4, PS) | – | 6% | – |
| CCCGACACGCGCCGCT (sugars k3 d10 k3, PS) | – | 12% | – |
| AGAGTGGGTGTTGGCC (sugars k3 d10 k3, PS) | – | 25% | – |
| GAAGTTTACACTGGAT (sugars e1 k2 d9 k2 e2, PS) | 48% | – | – |
